The source made the active and inactive calls. No cut-off for these calls is given here.
Experiments:
[1] = Drug localization in mitochondria of living human SK-N-SH cells assessed as colocalization at 6 uM incubated for 48 hrs by DAPI staining based fluorescence microscopic analysis; assay type: ADME
[2] = Downregulation of N-cadherin expression in human SK-N-SH cells at 6 uM measured after 48 hrs by Western blot analysis relative to control; assay type: functional
SK-N-SH [3] = assay: Inhibition of cell migration in human SK-N-SH cells at 0.5 to 2 uM measured after 48 hrs by crystal violet staining based microscopic analysis; assay type: functional; conditions: dose 0.5-2 µM
SK-N-SH [4] = assay: Inhibition of colony formation in human SK-N-SH cells assessed as reduction in colony size at 0.5 to 2 uM preincubated for 24 hrs followed by incubation under compound free medium for 8 days by crystal violet staining based analysis; assay type: functional, cell-based; conditions: dose 0.5-2 µM
SK-N-SH [5] = assay: Induction of apoptosis in human SK-N-SH cells assessed as increase in apoptotic cells at 3 to 9 uM measured after 48 hrs by FITC and PI staining based flow cytometry analysis relative to control; assay type: functional; conditions: dose 3-9 µM
[6] = Drug localization in cytoplasm of human SK-N-SH cells assessed as increase in green fluorescence at 6 uM measured after 48 hrs by DAPI staining based fluorescence microscopic analysis; assay type: ADME, subcellular
[7] = Toxicity in female ICR mouse assessed as change in organ coefficient of lung at 10 mg/kg, ip […] (reference value: 0.007+/-0.001); assay type: organism-based; conditions: in vivo
SK-N-SH [8] = assay: Induction of mitochondrial dysfunction in human SK-N-SH cells assessed as increase in intracellular green fluorescence intensity at 3 to 9 uM; assay type: functional, cell-based; conditions: dose 3-9 µM
[9] = Downregulation of Beta-catenin expression in human SK-N-SH cells at 6 uM measured after 48 hrs by Western blot analysis relative to control; assay type: functional
[10] = Toxicity in female ICR mouse assessed as change in organ coefficient of heart at 10 mg/kg, ip […] (reference value: 0.006+/-0.002); assay type: organism-based; conditions: in vivo
Quadruplex DNA = assay: Binding affinity to HRCC G4 DNA (mitochondrial DNA) (unknown origin) assessed as dissociation constant by SPR analysis; assay type: nucleic-acid assay
SK-N-SH [11] = assay: Inhibition of cell invasion in human SK-N-SH cells at 0.5 to 2 uM measured after 48 hrs by crystal violet staining based microscopic analysis; assay type: functional; conditions: dose 0.5-2 µM
SK-N-SH [12] = assay: Inhibition of cell invasion in human SK-N-SH cells at 2 uM measured after 48 hrs by crystal violet staining based microscopic analysis relative to control; assay type: functional
SK-N-SH [13] = assay: Downregulation of caspase-9 expression in human SK-N-SH cells at 3 to 9 uM measured after 48 hrs by Western blot analysis; assay type: functional, cell-based; conditions: dose 3-9 µM
SK-N-SH [14] = assay: Antiproliferative activity against human SK-N-SH cells assessed as reduction in cell proliferation at 2 uM incubated for 60 hrs by CCK-8 method relative to control; assay type: functional; set-up: scale not given: the % may be the effect or the level left
[15] = Downregulation of vimentin expression in human SK-N-SH cells at 3 to 9 uM measured after 48 hrs by Western blot analysis relative to control; assay type: functional; conditions: dose 3-9 µM
SK-N-SH [16] = assay: Antiproliferative activity against human SK-N-SH cells assessed as reduction in cell proliferation at 1 uM incubated for 60 hrs by CCK-8 method relative to control; assay type: functional; set-up: scale not given: the % may be the effect or the level left
SK-N-SH [17] = assay: Induction of mitochondrial dysfunction in human SK-N-SH cells assessed as appearance of ring like distribution at 6 uM measured upto 48 hrs; assay type: functional, cell-based
[18] = Toxicity in female ICR mouse assessed as change in organ coefficient of heart at 20 mg/kg, ip […] (reference value: 0.006+/-0.002); assay type: organism-based; conditions: in vivo
[19] = Toxicity in female ICR mouse assessed as histomorphological changes in liver at 10 to 20 mg/kg, ip H and E staining based analysis; assay type: organism-based; conditions: in vivo, dose 10-20 mg/kg
[20] = Toxicity in female ICR mouse assessed as change in organ coefficient of lung at 20 mg/kg, ip […] (reference value: 0.007+/-0.001); assay type: organism-based; conditions: in vivo
[21] = Toxicity in female ICR mouse assessed as change in organ coefficient of spleen at 10 mg/kg, ip […] (reference value: 0.006+/-0.002); assay type: organism-based; conditions: in vivo
SK-N-SH [22] = assay: Downregulation of caspase-3 expression in human SK-N-SH cells at 3 to 9 uM measured after 48 hrs by Western blot analysis; assay type: functional, cell-based; conditions: dose 3-9 µM
[23] = Downregulation of Beta-catenin expression in human SK-N-SH cells at 9 uM measured after 48 hrs by Western blot analysis relative to control; assay type: functional
[24] = Toxicity in female ICR mouse assessed as appearance of intact glomeruli in kidney at 10 to 20 mg/kg, ip H and E staining based analysis; assay type: organism-based; conditions: in vivo, dose 10-20 mg/kg
SK-N-SH [25] = assay: Induction of apoptosis in human SK-N-SH cells assessed as increase in apoptotic cells measured after 48 hrs by FITC and PI staining based flow cytometry analysis; assay type: functional, cell-based; conditions: dose 3-9 µM
N2a [26] = assay: Antitumor activity against mouse N2a cells implanted in female ICR mouse model assessed as reduction in cell nuclear size at 10 to 20 mg/kg, ip by H and E staining based analysis; assay type: functional, organism-based; conditions: dose 10-20 mg/kg
[27] = Toxicity in female ICR mouse assessed as histomorphological changes in heart at 10 to 20 mg/kg, ip H and E staining based analysis; assay type: organism-based; conditions: in vivo, dose 10-20 mg/kg
[28] = Toxicity in female ICR mouse assessed as change in organ coefficient of spleen at 20 mg/kg, ip […] (reference value: 0.006+/-0.002); assay type: organism-based; conditions: in vivo
N2a [29] = assay: Antitumor activity against mouse N2a cells implanted in female ICR mouse model assessed as suppression of tumor cell proliferation administered as ip dose measured upto 8 days by Ki67 staining based analysis; assay type: functional, organism-based; conditions: dose 10-20 mg/kg, time <= 8.0 day
[30] = Toxicity in female ICR mouse assessed as change in organ coefficient of kidney at 10 mg/kg, ip […] (reference value: 0.007); assay type: organism-based; conditions: in vivo
SK-N-SH [31] = assay: Upregulation of AIF level in human SK-N-SH cells at 6 uM measured after 48 hrs by immunofluorescence staining based microscopic analysis; assay type: functional, cell-based

For `N#C[Se]CCCOc1ccc2cc(C(=O)N3N=C(c4ccc(F)cc4)CC3c3ccc(F)cc3)c(=O)oc2c1` (configuration not stated), the Drug uptake [1] was “Active”, the Activity [2] was 63.1% and the inhibition (SK-N-SH [3]) was “Active”. For the same molecule, the inhibition (SK-N-SH [4]) was “Active”, the Activity (SK-N-SH [5]) was 47.4% and the Drug uptake [6] was “Active”. For the same molecule, the Activity [7] was 0.007, the Activity (SK-N-SH [8]) was “Active” and the Activity [9] was 70.8%. For the same molecule, the Activity [10] was 0.005, the Kd (Quadruplex DNA) was 14.2 nM and the inhibition (SK-N-SH [11]) was “Active”. The inhibition at 2 µM (SK-N-SH [12]) was 78.4%, the Activity (SK-N-SH [13]) was “Active” and the Activity (SK-N-SH [14]) was 81.4%. The Activity [15] was 33.1%, the Activity (SK-N-SH [16]) was 63.8% and the Activity (SK-N-SH [17]) was “Active”. The Activity [18] was 0.005, the Activity [19] was “Non-toxic” and the Activity [20] was 0.007. For the same molecule, the Activity [21] was 0.006, the Activity (SK-N-SH [22]) was “Active” and the Activity [23] was 42.2%. For the same molecule, the Activity [24] was “Non-toxic”, the Activity (SK-N-SH [25]) was “Dose-dependent-effect” and the Activity (N2a [26]) was “Active”. The Activity [27] was “Non-toxic”, the Activity [28] was 0.005 and the Activity (N2a [29]) was “Dose-dependent-effect”. For the same molecule, the Activity [30] was 0.007 and the Activity (SK-N-SH [31]) was “Active”.

Source: ChEMBL document CHEMBL6103579, “Antiproliferative activity of selenium-enriched coumarin derivatives on the SK-N-SH neuroblastoma cell line: Mechanistic insights” (Eur J Med Chem, 2025)
